Measurements as given in patent US20150316552A1, “Human Notch Receptor Mutations and Their Use” (OncoMed Pharmaceuticals, Inc., priority 2011, published 2015).
“Also recorded” adds a separate entry of the source. Square brackets hold non-standard residues; d marks the D form. Peptide text beside a SMILES is read from it. * marks the point of attachment. Nle = CCCC[C@H](N)C(=O)O; Cbz = O=C(OCc1ccccc1)*

Key:
OMP-B40 breast tumors = test: OMP-B40 breast tumor xenograft, tumor growth; type: in vivo, NOD/SCID mice; conditions: antibodies 15 mg/kg i.p. twice a week, Taxol 20 mg/kg i.p. once a week; FIG. 3B
Experimental: B40 p3 tumor cells were injected subcutaneously into the left flank of 6-7 week old female NOD/SCID mice (300,000 cells/mouse). Mice were monitored weekly and tumors were allowed to grow until they were approximately 140 mm^3 (78 days after injection). Mice were randomized into five treatment groups and treated with control antibody, or different doses (0.3 mg/kg, 1 mg/kg, 3 mg/kg, 10 mg/kg) of the OMP-52M51 humanized anti-NOTCH1 antibody. The antibodies were dosed i.p. twice a week. Tumor growth was monitored by caliper measurement once a week.
Dissociated OMP-B40 p3 tumor cells were re-suspended in injection media (PBS containing 100 ng/mL VEGF and 100 ng/mL bFGF and 0.5× matrigel) and injected subcutaneously into the left flank of 6-7 week old female NOD/SCID mice (300,000 cells/mouse). Mice were monitored weekly and tumors were allowed to grow until they were approximately 140 mm^3 (78 days after injection). Mice were randomized into four treatment groups (n=10 mice/group) and treated with control antibody, anti-NOTCH1 antibody OMP-52M51, taxol or a combination of OMP-52M51 with taxol. The antibodies were dosed i.p. twice a week at 15 mg/kg and Taxol was dosed i.p. once a week at 20 mg/kg. Tumor growth was monitored by caliper measurement once a week.
As described in Example 2, three hundred thousand OMP-B40 tumor cells were injected subcutaneously and allowed to grow to a mean volume of […] At that point, 78 days after study start, mice were randomized and treatment started. Mice received either 15 mg/kg control antibody or 15 mg/kg OMP-52M51 humanized antibody twice weekly, with or without 20 mg/kg paclitaxel once weekly, all administered by IP injection. Mean±SEM, n=10 animals per group.

[1] = tested on: Ras-transformed fibroblasts; conditions: cited from earlier work
medulloblastoma = conditions: cited from earlier work
T-ALL = conditions: O'Neil et al. 2006; cited from earlier work
[2] = tested on: melanoma and Kaposi sarcoma; conditions: Curry et al. 2005; cited from earlier work
OMP-C31 colon tumor = OMP-C31 colon tumor model, tumor growth; type: in vivo, Nod-Scid mice; conditions: 10 mg/kg IP weekly, p=0.0005; FIG. 15
Experimental: In order to test the effect of the 59R5 anti-NOTCH2/3 antibody on a tumor which harbors an activating mutation in NOTCH3, the OMP-C31 colon tumor model was utilized. 5,000 OMP-C31 colon tumor cells were injected sub-cutaneously in Nod-Scid mice. Dosing was initiated two days after tumor cell injection. Tumor bearing mice (n=10 group) were treated with either control antibody (1B7.11) or 59R5 anti-NOTCH2/3 antibody. Antibodies were dosed by IP injection at 10 mg/kg, weekly, for the duration of the experiment. Tumor volumes were measured on the indicated days. The data is plotted as the mean+SEM (FIG. 15).

OMP-B37 breast tumors = test: OMP-B37 breast tumor xenograft, tumor growth; type: in vivo, NOD/SCID mice
Experimental: Dissociated lineage depleted OMP-B37 p4 tumor cells were re-suspended in injection media (PBS and 0.5× matrigel) and injected subcutaneously into the right flank of 6-7 week old female NOD/SCID mice (27,000 cells/mouse). Mice were monitored weekly and tumors were allowed to grow until they were approximately 80 mm^3 (49 days after injection). Mice were randomized into two treatment groups (n=11 mice/group) and were dosed once a week with 15 mg/kg control antibody, or 20 mg/kg 59R5, an anti-NOTCH2/3 antibody (FIG. 5). Tumor growth was monitored by caliper measurement once a week.
(§1) Activity of anti-NOTCH2/3 in combination with Taxol in OMP-B37 breast tumor. The anti-NOTCH2/3 antibody 59R5, taxol, or a combination of 59R5 and taxol were administered to OMP-B37 xenograft mice. Initially, B37 p2 tumor cells were injected subcutaneously into the right flank of 6-7 week old female NOD/SCID mice. Mice were monitored weekly and tumors were allowed to grow until they were approximately 80 mm^3 Mice were then administered a control antibody, the 59R5 anti-NOTCH2/3 antibody, taxol or a combination of 59R5 anti-NOTCH2/3 antibody and taxol (FIG. 6). Tumor growth was monitored by caliper measurement once a week.

E-cadherin = E-cadherin expression in treated OMP-B37 tumors; type: in vivo, NOD/SCID mice; conditions: OMP-B37 xenograft; FIG. 6B
Experimental: as §1

NOTCH3.ICD = test: NOTCH3 ICD IHC of treated OMP-B37 breast tumors; type: in vivo, mice; conditions: OMP-B37 xenograft; FIG. 17; listed as OMP-59R5
Experimental: NOTCH3.ICD accumulation in OMP-B37 tumor cells comprising a NOTCH3 activating mutation following treatment with a NOTCH2/3 antagonist and/or chemotherapy was examined by IHC. Tumor samples were isolated from the OMP-B37 xenograft mice that were treated with OMP-59R5 anti-NOTCH2/3 antibody, taxol or a combination of OMP-59R5 and taxol as described in the second paragraph of Example 3 above. A NOTCH3 ICD (“N3.ICD”) rabbit monoclonal antibody was developed that binds to the cleavage site of NOTCH3 and detects activated NOTCH3 within the nucleus. NOTCH3 ICD IHC was performed on the tumor samples using the N3.ICD antibody and standard IHC protocols with antigen retrieval in Target Retrieval Solution pH 9 (DAKO), antibody incubation overnight at 4° C. and detection with peroxidase-based EnVision™+ polymer (DAKO) and DAB+ (DAKO). Statistical significance was determined by One Way ANOVA with Bonferroni adjustment.

In the case of CC(=O)O[C@H]1C(=O)[C@@]2(C)[C@H]([C@H](OC(=O)c3ccccc3)[C@]3(O)C[C@H](OC(=O)[C@H](O)[C@@H](NC(=O)c4ccccc4)c4ccccc4)C(C)=C1C3(C)C)[C@]1(OC(C)=O)CO[C@@H]1C[C@@H]2O [Taxol, paclitaxel, reference compound], the “reduction in tumor volume versus control” value (OMP-B40 breast tumors) is reported as 57.3%.

For CCC(C)C(NC(=O)OCc1ccccc1)C(=O)NC(C=O)CC(C)C (stereo not drawn) [IL-X, cbz-IL-CHO] (Cbz-Ile-Leu-aldehyde; configuration not given here), the antineoplastic activity [1] is given as “NOTCH1-dependent antineoplastic activity”.

For C[C@H](NC(=O)Cc1cc(F)cc(F)c1)C(=O)N[C@H](C(=O)OC(C)(C)C)c1ccccc1 [DAPT, N—[N-(3,5-difluorophenacetyl)-L-alanyl]-S-phenylglycine t-butyl ester], the medulloblastoma growth (medulloblastoma) is given as “marked reduction in medulloblastoma growth” and the “cell cycle arrest and apoptosis” value (T-ALL) is given as “induced G0-G1 cell cycle arrest and apoptosis”.

In the case of CCCC[C@@H](C=O)NC(=O)[C@H](CC(C)C)NC(=O)[C@H](CC(C)C)NC(=O)OCc1ccccc1 [z-Leu-leu-Nle-CHO] (Cbz-Leu-Leu-[Nle]-aldehyde), the tumor growth [2] is given as “suppress tumor growth”.

For “59R5: anti-NOTCH2/3 antibody, ATCC PTA-10170; heavy chain variable region SEQ ID NO:30, light chain variable region SEQ ID NO:32”, the “tumor growth relative to control antibody treated group” value (OMP-C31 colon tumor) was “inhibited OMP-C31 tumor growth”, the tumor volume reduction (OMP-B37 breast tumors; 20 mg/kg once a week, after 5 weeks of treatment, FIG. 5) was 56.6% and the “tumor volume in xenografted animals (in words)” value (OMP-B37 breast tumors; 59R5, taxol or combination study, FIG. 6A) was “greatly decreased tumor volume”. The “tumor volume compared to control antibody (in words)” value (OMP-B37 breast tumors; FIG. 5) was “greatly decreased tumor volume”, the “expression of E-cadherin” value (E-cadherin) was “increases expression of E-cadherin” and the “NOTCH3.ICD accumulation relative to PBS treated cells” value (NOTCH3.ICD) was “significantly inhibited NOTCH3.ICD accumulation; also recorded: blocks NOTCH3.ICD accumulation”.
